Assay results: patent US11911406B2, “PH-responsive polymer-drug conjugates for enhanced antibacterial efficacy” (priority 2020, dated 2024)

Columns and labels:
E. coli (DH5 alpha) = assay: MIC, broth microdilution; type: cell-based
Procedure: (§1) Bacterial strains. S. aureus Newman was kindly provided by Prof Douglas Weibel; E. coli ATCC25922, S. aureus ATCC 33591 and P. aeruginosa ATCC 27853 were kindly donated by Prof. David Andes. E. coli DH5a was purchased from Thermo Fisher. The bacteria above were grown in Mueller Hinton Broth (MHB) media (Criterion, Santa Maria, Calif., USA). M. smegmatis mc^2155 strain was kindly donated by Prof. Adel M. Talaat, and was grown in Middlebrook 7H9 broth (HiMedia, West Chester, Pa., USA).
(§2) Minimal inhibitory concentration (MIC) measurements. The MIC of the different treatments on various bacteria strains was determined using the broth microdilution method. Briefly, 100 μL of the respective broth media containing serial twofold dilutions of each compound was placed into a 96-well tissue culture plate. Each bacterial strain was taken from an exponentially growing culture and diluted to 5×10^6 CFU/mL. 10 μL of such microbial suspension was inoculated in each well of the plate, resulting in a final bacteria concentration of approximately 5×10^5 CFU/mL. The bacteria were cultured at 37° C. for 24 h and their growth were observed by reading the optical density (OD) at 600 nm. The MIC was determined as the treatment concentration at which no microbial growth was observed. Broth containing microbial cells alone was used as a positive control and broth without bacteria inoculation was used as a negative control. Each test was carried out in 3 replicates.

S. aureus (Newman) = assay: MIC, broth microdilution; type: cell-based
Procedure: as §1, §2

E. coli (ATCC 25922) = assay: MIC, broth microdilution; type: cell-based
Procedure: as §1, §2

[1] = test system: S. aureus (MRSA ATCC33591); assay: MIC, broth microdilution; type: cell-based
Procedure: as §1, §2

M. smegmatis (MC^2 155) = assay: MIC, broth microdilution; type: cell-based
Procedure: as §1, §2

[2] = test system: P. aeruginosa (ATCC 27853); assay: MIC, broth microdilution; type: cell-based
Procedure: as §1, §2

P. aeruginosa biofilm = assay: Biofilm inhibition assay (crystal violet); type: cell-based; conditions: 256 μg/mL streptomycin
Procedure: (§3) Biofilm inhibition assays. Exponentially growing bacteria were inoculated into 96 well plates (1×10^4 cell/well) containing MHB broth with 2% (v/w) glucose, incubated under stationary conditions at 37° C. for one day. After biofilm formation, the media was discarded and the plates were washed with PBS to remove the planktonic bacteria. Fresh NMB broth containing serially diluted free streptomycin or PDC were added to the plates and incubated at 37° C. for another 24 h. The media in each well was then removed, and the plates were washed carefully with PBS for 1 time. The biofilm in each well was fixed with 95% ethanol for 15 min and stained with 0.1% crystal violet for 15 min. After washing with Milli-Q water for three times, 33% v/v acetic acid (100 μL/well) was added to solubilize the crystal violet staining. OD 560 in each well was read to determine the biofilm formation. The biofilm formed as described above was also stained with acridine orange and Cy5 labeled PDC, and monitored by CLSM to observe the PDC penetration.

E. coli biofilm = assay: Biofilm inhibition assay (crystal violet); type: cell-based; conditions: streptomycin concentration 16 μg/mL
Procedure: as §3

[3] = test system: broad spectrum of microbes; assay: MIC, broth microdilution, across the strains tested; type: cell-based; conditions: E. coli, MRSA, P. aeruginosa (FIGS. 3G-I)
Procedure: as §1
as §2, with “Broth containing microbial cells alone was used as a positive control and broth without bacteria inoculation was used as a negative control. Each test was carried out in 3 replicates.” left out

[4] = Streptomycin release kinetics (dialysis, HPLC); type: physicochemical
Procedure: Streptomycin release kinetics. […] The bags were put into the PBS buffers with the corresponding pH, and incubated in a 37° C. shaker. At different time intervals, 100 μL sample outside the dialysis bag was collected for HPLC analysis.

[5] = test system: MRSA in Raw 264.7 macrophage; assay: Antibacterial activity for intracellular infection; type: cell-based; conditions: Raw 264.7 infected with S. aureus, pH 7.4 and 6.0, 1 day
Procedure: (§4) Antibacterial activity for intracellular infection. The antibacterial activity for intracellular infection was tested following the previous report. Briefly, macrophage Raw 264.7 cells were seeded in 96-well plate at a density of 1×10^4 cell/swell overnight and infected with MRSA or P. aeruginosa at a ratio of 10-20 bacteria per macrophage in FBS free RPMI 1640 medium. After 3 h incubation, the cells were washed and cultured in 1640 medium containing 10% FBS and 50 μg/mL gentamycin for one day to prevent the growth of extracellular bacteria. Then the macrophages were treated with free streptomycin or PDC for another day and lysed with Milli-Q water supplemented with 0.1% Triton-X. The cell lysates were serially diluted and the CFU in each well was determined by plating on MHB agar plates.

[6] = test system: P. aeruginosa in Raw 264.7 macrophage; assay: Antibacterial activity for intracellular infection; type: cell-based; conditions: Raw 264.7 infected with P. aeruginosa, pH 7.4 and 6.0, 1 day
Procedure: as §4

[7] = test system: methicillin-resistant S. aureus (MRSA, ATCC 33591); assay: Checkerboard assay, FIC index; type: cell-based
Procedure: (§5) Fractional inhibitory concentration (FIC) measurement. The synergy between the cationic polymer and streptomycin was assessed by checkerboard assays. The two antibacterial components were mixed in a 96-well plate with serial two-dimensional dilutions. Bacteria were inoculated in each well of the plate and their growth, reflected by the OD600 value, were monitored. The synergy effect was evaluated by calculating the FIC index according to the formula below:
(§6) [formula] MICA^Comb and MICB^Comb indicate the MICs of the two components in combination. The interactions between the two components are defined according to standard criteria of considering FIC≤0.5 as synergistic; 0.5<FIC≤1 as additive; 1<FIC≤4 as indifference; and FIC>4 as antagonism.

P. aeruginosa ATCC 27853 = assay: Checkerboard assay, FIC index; type: cell-based
Procedure: as §5, §6

E. coli ATCC 25922 = assay: Checkerboard assay, FIC index; type: cell-based
Procedure: as §5, §6

[8] = test system: HEK 293 human embryonic kidney cells; assay: Cell viability test (MTT cytotoxicity); type: cell-based; conditions: 48 h, row marked pH 7.4
Procedure: Cell viability test. Cytotoxicity of different components was tested through MTT assays. HEK 293 human embryonic kidney cells were seeded onto a 96-well plate (1×10^4 cells/well) and cultured overnight. The cells were then treated with various polymers or PDCs with serial dilutions for 48 h and their viability was measured by a standard MTT assay. Data were collected by monitoring the difference between the absorbance at 560 nm and 650 nm using a GloMax-Multi Microplate Multimode Reader (Promega, Wis., USA).

Substance: Hex-Cys-Cys-DET-strep-DMA [Neutralized PDC]
- MIC E. coli (DH5 alpha) (E. coli (DH5 alpha); pH 6.0): 20 µg/mL
- MIC E. coli (DH5 alpha) (E. coli (DH5 alpha); pH 7.4): 80 µg/mL
- MIC S. aureus (Newman) (S. aureus (Newman); pH 6.0): 20 µg/mL
- MIC S. aureus (Newman) (S. aureus (Newman); pH 7.4): 80 µg/mL
- MIC E. coli (ATCC 25922) (E. coli (ATCC 25922); pH 6.0): 20 µg/mL
- MIC E. coli (ATCC 25922) (E. coli (ATCC 25922); pH 7.4): 80 µg/mL
- MIC S. aureus (MRSA ATCC33591) ([1]; pH 6.0): 40 µg/mL
- MIC S. aureus (MRSA ATCC33591) ([1]; pH 7.4): 160 µg/mL
- MIC M. smegmatis (MC^2 155) (M. smegmatis (MC^2 155); pH 6.0): 2.5 µg/mL
- MIC M. smegmatis (MC^2 155) (M. smegmatis (MC^2 155); pH 7.4): 20 µg/mL
- MIC P. aeruginosa (ATCC 27853) ([2]; pH 6.0): 40 µg/mL
- MIC P. aeruginosa (ATCC 27853) ([2]; pH 7.4): 160 µg/mL
- biofilm reduced / removed (P. aeruginosa biofilm): 96%
- biofilm eliminated (E. coli biofilm): 75%
- effect of pH (6.0 vs 7.4) on MIC, in words [3]: performed significantly better at pH 6.0 than at 7.4
- streptomycin release ([4]; pH 6.0, within 48 h): about 70%
- streptomycin release ([4]; pH 7.4, at 48 h): about 20%
- antibacterial efficacy on intracellular bacteria (CFU), in words [5]: enhanced the antibacterial efficacy
- antibacterial efficacy on intracellular bacteria (CFU), in words [6]: enhanced the antibacterial efficacy
- FICI of the two components in the PDC (tethered together) [7]: 0.475
- FICI of the two components in the PDC (tethered together) (P. aeruginosa ATCC 27853): 0.306
- FICI of the two components in the PDC (tethered together) (E. coli ATCC 25922): 0.362
- HEK293 IC50 [8]: >2000 µg/mL
